This is an account of results in US11453697B1, “Cyclic di-nucleotide compounds as sting agonists” (Merck Sharp & Dohme Corp., priority 2015, dated 2022).

Assay [1] concerns IFN-β secretion in THP1 cells. Put plainly: IFN-β secretion in THP1 cell culture (5 h). It counts as cell-based, human. The gist of the method: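 THP1 cells incubated with compound for 5 h at 37 °C, 5% CO2, and secreted IFN-β in supernatant quantified by AlphaLISA. Percent effect normalised to 30 uM cGAMP positive control and 0.3% DMSO. EC50 from 4-parameter fit.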
Assay [2] has as its target full-length HAQ STING (Homo sapiens (Human), UniProt Q86WV6, G230A/H232R/R293Q/R71H). Kind of assay: 3H-cGAMP filtration binding assay (HAQ STING). The note with it: competition with tritiated cGAMP, HAQ STING membrane; read-out: EC50 (nM), 3H-cGAMP filtration binding assay for HAQ STING. The method in brief: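 Competition binding of compounds against 8 nM [3H]cGAMP working stock on Hi-Five cell membranes overexpressing full-length HAQ STING; compound and membrane preincubated 60 min at RT before ligand addition. Bound radioactivity read by filtration and scintillation counting; percent activity normalized to controls, EC50 from 4-parameter fit.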

For assay [3], the target named is full-length WT STING (Homo sapiens (Human), UniProt Q86WV6, H232R). Kind of assay: 3H-cGAMP filtration binding assay (WT STING). The note with it: competition with tritiated cGAMP, WT STING membrane; read-out: EC50 (nM), 3H-cGAMP filtration binding assay for WT STING. The method, then:
The ability of compounds to bind STING is quantified by their ability to compete with tritiated cGAMP ligand for human STING receptor membrane using a radioactive filter-binding assay.
The basic WT STING filtration assay protocol is as follows:
Tritium levels for each reaction well were then measured using a PerkinElmer TopCount plate reader.
After normalization to controls, the percent activity for each compound concentration was calculated by measuring the amount of remaining radioactivity. The plot of percent activity versus the log of compound concentration was fit with a 4-parameter dose response equation to calculate EC50 values.

Chain of full-length HAQ STING (Q86WV6 other isoform, or with tags, fused parts or gaps, stated change not applied): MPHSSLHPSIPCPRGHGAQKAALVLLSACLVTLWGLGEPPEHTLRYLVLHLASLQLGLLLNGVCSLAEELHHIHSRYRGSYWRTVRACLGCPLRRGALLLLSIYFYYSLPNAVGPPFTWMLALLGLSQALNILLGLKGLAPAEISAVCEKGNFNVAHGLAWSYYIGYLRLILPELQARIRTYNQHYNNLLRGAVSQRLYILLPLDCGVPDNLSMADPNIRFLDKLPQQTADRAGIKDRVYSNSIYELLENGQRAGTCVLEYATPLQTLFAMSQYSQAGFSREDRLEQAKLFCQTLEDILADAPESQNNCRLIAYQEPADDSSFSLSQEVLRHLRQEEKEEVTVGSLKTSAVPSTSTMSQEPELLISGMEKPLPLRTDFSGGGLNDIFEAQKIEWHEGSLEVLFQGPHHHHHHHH
Chain of full-length WT STING (Q86WV6 other isoform, or with tags, fused parts or gaps H232R (already in the parent)): as the sequence (Q86WV6 other isoform, or with tags, fused parts or gaps, stated change not applied) above, with H71R, A230G, Q293R counted along it

As for `Nc1nc2c(ncn2[C@@H]2O[C@@H]3COP(O)(=S)O[C@H]4[C@@H](O)[C@H](n5cnc6c(N)ncnc65)O[C@@H]4COP(=O)(O)O[C@@H]2[C@@H]3O)c(=O)[nH]1` (stereo partly drawn) [Example 38, 2-amino-9-[(5R,7R,8R,12aR,14R,15R,15aS,16R)-14-(6-amino-9H-purin-9-yl)-2,10,15,16-tetrahydroxy-10-oxido-2-sulfidooctahydro-12H-5,8-methanofuro[3,2-l][1,3,6,9,11,2,10]pentaoxadiphosphacyclotetradecin-7-yl]-1,9-dihydro-6H-purin-6-one], in assay [1], the “% Effect at 30 μM relative to 2′3′-cGAMP” value is reported as 123%. Also, the EC50 in assay [2] was determined as 3 nM; in assay [3] it was 24.9 nM.

With `Nc1nc2c(ncn2[C@@H]2O[C@@H]3COP(=O)(S)O[C@H]4[C@@H](O)[C@H](n5ccc6c(N)ncnc65)O[C@@H]4COP(=O)(O)O[C@@H]2[C@@H]3O)c(=O)[nH]1` (stereo partly drawn) [Example 43, 2-amino-9-[(5R,7R,8R,12aR,14R,15R,15aS,16R)-14-(4-amino-7H-pyrrolo[2,3-d]pyrimidin-7-yl)-10,15,16-trihydroxy-2,10-dioxido-2-sulfanyloctahydro-12H-5,8-methanofuro[3,2-l][1,3,6,9,11,2,10]pentaoxadiphosphacyclotetradecin-7-yl]-1,9-dihydro-6H-purin-6-one], in assay [1], the “% Effect at 30 μM relative to 2′3′-cGAMP” value was determined as 130%. The EC50 in assay [2] was 162 nM; in assay [3], 1020 nM.
